Experimental data published in publication PMC8523698, “Preclinical characterization of an intravenous coronavirus 3CL protease inhibitor for the potential treatment of COVID19” (Nature Communications, 2021).
“And” between values parts separate entries of the source, which are not always exact repeats. Identical values can stand only once. Like-named read-outs stand apart in the source and are kept apart here.

Key:
[1] = biological target: HKU4-CoV 3CL^pro (Bat coronavirus HKU4, UniProt P0C6W3); assay type: biochemical; conditions: for Initial Velocity: triplicate, listed as Compound F2
[2] = biological target: HKU5-CoV 3CL^pro (Bat coronavirus HKU5, UniProt P0C6W4); assay type: biochemical; conditions: for Initial Velocity: triplicate, listed as Compound F2
[3] = test system: Human Chymotrypsin; test: Mammalian protease panel; assay type: biochemical
[4] = test system: SARS-CoV-2; test: microbe, parasite or virus in culture; assay type: cell-based; conditions: Severe acute respiratory syndrome coronavirus 2, Vero C1008; N=3; read-out: EC50 ± Std. Dev
[5] = biological target: T1, CYP2B6 (Homo sapiens, UniProt P20813); test: Reversible CYP inhibition in human liver microsomes; assay type: in vitro ADME; conditions: for activity at 0.1 µM: pH 7.4, CYP 2B6, 0.1 µM; for activity at 0.1 µM / activity at 0.214 µM / activity at 0.979 µM / activity at 2.09 µM / activity at 4.48 µM / activity at 20.5 µM / activity at 43.8 µM / activity at 93.5 µM / activity at 200 µM: read-out: Percent of Control Activity; for activity at 0.214 µM: pH 7.4, CYP 2B6, 0.214 µM; for activity at 0.979 µM: pH 7.4, CYP 2B6, 0.979 µM; for activity at 2.09 µM: pH 7.4, CYP 2B6, 2.09 µM; for activity at 4.48 µM: pH 7.4, CYP 2B6, 4.48 µM; for activity at 20.5 µM: pH 7.4, CYP 2B6, 20.5 µM; for activity at 43.8 µM: pH 7.4, CYP 2B6, 43.8 µM; for activity at 93.5 µM: pH 7.4, CYP 2B6, 93.5 µM; for activity at 200 µM: pH 7.4, CYP 2B6, 200 µM
T1 sequence (P20813 1-491): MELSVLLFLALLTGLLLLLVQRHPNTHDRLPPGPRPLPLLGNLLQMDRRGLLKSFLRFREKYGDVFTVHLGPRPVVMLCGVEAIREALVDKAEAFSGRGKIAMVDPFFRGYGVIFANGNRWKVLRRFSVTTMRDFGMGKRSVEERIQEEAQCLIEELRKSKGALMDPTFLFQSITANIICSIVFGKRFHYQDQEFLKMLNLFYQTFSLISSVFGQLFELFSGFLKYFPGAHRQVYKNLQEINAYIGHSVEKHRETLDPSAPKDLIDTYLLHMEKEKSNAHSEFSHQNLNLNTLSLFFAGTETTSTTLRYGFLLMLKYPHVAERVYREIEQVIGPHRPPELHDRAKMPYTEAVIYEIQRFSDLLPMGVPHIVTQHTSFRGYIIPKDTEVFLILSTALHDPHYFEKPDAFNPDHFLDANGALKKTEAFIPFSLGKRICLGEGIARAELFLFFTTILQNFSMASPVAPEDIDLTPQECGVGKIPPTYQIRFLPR

[6] = LogD shake-flask measurement at pH 7.4; conditions: 1-octanol/0.1 M sodium phosphate buffer
[7] = PBPK modeling (Simcyp) of DDI with itraconazole
[8] = biological target: CYP3A4/5 (Homo sapiens, UniProt P08684); test: Time-dependent inhibition of CYP enzymes in human liver microsomes; conditions: CYP3A4; Simcyp interaction input
[9] = human, human liver microsomes, 30-Minute Preincubation
[10] = human, human liver microsomes, Zero-Minute Preincubation

HKU5-CoV 3CL^pro, sequence (P0C6W4 3339-3644 limits assumed): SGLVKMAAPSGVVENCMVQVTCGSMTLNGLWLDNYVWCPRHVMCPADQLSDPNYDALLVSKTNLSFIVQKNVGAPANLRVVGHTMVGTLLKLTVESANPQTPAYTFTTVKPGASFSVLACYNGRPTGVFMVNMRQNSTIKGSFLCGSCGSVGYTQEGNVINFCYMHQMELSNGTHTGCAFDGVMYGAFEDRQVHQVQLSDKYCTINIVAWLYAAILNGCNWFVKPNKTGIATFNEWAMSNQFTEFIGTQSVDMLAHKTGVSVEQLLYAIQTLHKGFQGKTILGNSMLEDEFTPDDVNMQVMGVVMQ
HKU4-CoV 3CL^pro, sequence (P0C6W3 3292-3597 limits assumed): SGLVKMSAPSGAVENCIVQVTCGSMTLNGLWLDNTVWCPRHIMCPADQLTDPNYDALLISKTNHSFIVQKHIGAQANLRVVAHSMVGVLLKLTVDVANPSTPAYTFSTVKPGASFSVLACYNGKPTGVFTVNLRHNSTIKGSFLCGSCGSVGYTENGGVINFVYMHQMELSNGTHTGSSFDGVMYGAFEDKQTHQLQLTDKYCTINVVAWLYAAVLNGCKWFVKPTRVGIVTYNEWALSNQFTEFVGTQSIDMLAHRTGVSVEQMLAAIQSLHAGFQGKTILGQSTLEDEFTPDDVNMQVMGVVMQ
CYP3A4/5, sequence (P08684 whole entry): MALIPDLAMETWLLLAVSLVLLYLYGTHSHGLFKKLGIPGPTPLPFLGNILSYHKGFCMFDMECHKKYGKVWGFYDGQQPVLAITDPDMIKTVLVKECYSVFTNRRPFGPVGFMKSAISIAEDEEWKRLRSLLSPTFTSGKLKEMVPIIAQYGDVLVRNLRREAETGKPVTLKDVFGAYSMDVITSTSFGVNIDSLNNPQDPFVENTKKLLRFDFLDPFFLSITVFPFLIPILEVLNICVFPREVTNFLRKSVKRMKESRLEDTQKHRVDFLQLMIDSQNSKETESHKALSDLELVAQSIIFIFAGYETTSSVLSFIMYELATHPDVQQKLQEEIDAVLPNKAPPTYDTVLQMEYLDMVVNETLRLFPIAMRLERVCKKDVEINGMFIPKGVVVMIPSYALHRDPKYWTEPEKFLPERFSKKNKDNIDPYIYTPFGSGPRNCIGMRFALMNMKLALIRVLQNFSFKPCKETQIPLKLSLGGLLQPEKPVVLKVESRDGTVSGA

COc1cccc2[nH]c(C(=O)N[C@@H](CC(C)C)C(=O)N[C@@H](C[C@@H]3CCNC3=O)C(=O)CO)cc12 [PF-00835231]
Initial Velocity ([1]; [Compound F2] 1.95312 nM): 0.9709 and 0.9956 and 0.9685
Initial Velocity ([1]; [Compound F2] 3.90625 nM): 0.9706 and 0.9741 and 0.9413
Initial Velocity ([1]; [Compound F2] 7.8125 nM): 0.919 and 0.9344 and 0.9288
Initial Velocity ([1]; [Compound F2] 20 nM): 0.7972 and 0.7875 and 0.7775
Initial Velocity ([1]; [Compound F2] 30 nM): 0.5859 and 0.5869 and 0.5914
Initial Velocity ([1]; [Compound F2] 40 nM): 0.342 and 0.3124 and 0.3465
Initial Velocity ([1]; [Compound F2] 50 nM): 0.1072 and 0.09971 and 0.1255
Initial Velocity ([1]; [Compound F2] 60 nM): 0.03996 and 0.02999 and 0.0446
Initial Velocity ([1]; [Compound F2] 80 nM): 0.0186 and 0.01858 and 0.02101
Initial Velocity ([1]; [Compound F2] 100 nM): 0.01432 and 0.02363 and 0.01328
Initial Velocity ([1]; [Compound F2] 400 nM): 0.004976 and 0.003329 and 0.004577
Ki ([1]; mean ± SEM): 0.034 ± 0.079 nM
Initial Velocity ([2]; [Compound F2] 1.95312 nM): 0.9802 and 1.028 and 0.9544
Initial Velocity ([2]; [Compound F2] 3.90625 nM): 0.9722 and 0.992 and 0.9888
Initial Velocity ([2]; [Compound F2] 7.8125 nM): 0.8869 and 0.9497 and 0.9402
Initial Velocity ([2]; [Compound F2] 20 nM): 0.7838 and 0.8106 and 0.827
Initial Velocity ([2]; [Compound F2] 30 nM): 0.6911 and 0.6076 and 0.6927
Initial Velocity ([2]; [Compound F2] 31.25 nM): 0.6277 and 0.6613 and 0.6251
Initial Velocity ([2]; [Compound F2] 40 nM): 0.5119 and 0.5104 and 0.5524
Initial Velocity ([2]; [Compound F2] 50 nM): 0.32 and 0.3287 and 0.3636
Initial Velocity ([2]; [Compound F2] 62.5 nM): 0.1843 and 0.2599 and 0.2229
Initial Velocity ([2]; [Compound F2] 80 nM): 0.01707 and 0.01468 and 0.01576
Initial Velocity ([2]; [Compound F2] 100 nM): 0.01024 and 0.007665 and 0.009516
Initial Velocity ([2]; [Compound F2] 200 nM): 0.003343 and 0.002684 and 0.002549
Initial Velocity ([2]; [Compound F2] 300 nM): 0.000987 and 0.001807 and 0.00196
Initial Velocity ([2]; [Compound F2] 400 nM): 0.002007 and 0.00134 and 0.002594
Ki ([2]; mean ± SEM): 0.033 nM
IC50 [3]: > 100000 nM
EC50 [4]: 60 ± 30 nM
Percent of Control Activity ([5]; CYP 2B6, 0.1 µM, 30-Minute Preincubation, 0.1 µM): 95.8%
Percent of Control Activity ([5]; CYP 2B6, 0.1 µM, Zero-Minute Preincubation, 0.1 µM): 102.2% and 99.6%
Percent of Control Activity ([5]; CYP 2B6, 0.214 µM, 30-Minute Preincubation, 0.214 µM): 99.2% and 94.6%
Percent of Control Activity ([5]; CYP 2B6, 0.214 µM, Zero-Minute Preincubation, 0.214 µM): 97.5% and 98.9%
Percent of Control Activity ([5]; CYP 2B6, 0.979 µM, 30-Minute Preincubation, 0.979 µM): 92.8% and 97.7%
Percent of Control Activity ([5]; CYP 2B6, 0.979 µM, Zero-Minute Preincubation, 0.979 µM): 99.5% and 102.1%
Percent of Control Activity ([5]; CYP 2B6, 2.09 µM, Zero-Minute Preincubation, 2.09 µM): 101.6%
Percent of Control Activity ([5]; CYP 2B6, 4.48 µM, 30-Minute Preincubation, 4.48 µM): 102.3% and 98.3%
Percent of Control Activity ([5]; CYP 2B6, 4.48 µM, Zero-Minute Preincubation, 4.48 µM): 96.6%
Percent of Control Activity ([5]; CYP 2B6, 20.5 µM, 30-Minute Preincubation, 20.5 µM): 88.5% and 89.3%
Percent of Control Activity ([5]; CYP 2B6, 20.5 µM, Zero-Minute Preincubation, 20.5 µM): 90.2% and 87.9%
Percent of Control Activity ([5]; CYP 2B6, 43.8 µM, 30-Minute Preincubation, 43.8 µM): 89.3% and 86.6%
Percent of Control Activity ([5]; CYP 2B6, 43.8 µM, Zero-Minute Preincubation, 43.8 µM): 84.2% and 79.6%
Percent of Control Activity ([5]; CYP 2B6, 93.5 µM, 30-Minute Preincubation, 93.5 µM): 69.4% and 77.3%
Percent of Control Activity ([5]; CYP 2B6, 93.5 µM, Zero-Minute Preincubation, 93.5 µM): 73.2% and 72.0%
Percent of Control Activity ([5]; CYP 2B6, 200 µM, 30-Minute Preincubation, 200 µM): 59.5% and 60.0%
Percent of Control Activity ([5]; CYP 2B6, 200 µM, Zero-Minute Preincubation, 200 µM): 54.6% and 55.4%
activity at 0.1 µM [5, 9]: 102%
activity at 0.1 µM [5, 10]: 104%
activity at 0.214 µM [5, 9]: 103%
activity at 0.214 µM [5, 10]: 103%
activity at 0.979 µM [5, 9]: 100%
activity at 0.979 µM [5, 10]: 105%
activity at 2.09 µM [5, 9]: 101%
activity at 2.09 µM [5, 10]: 105%
activity at 4.48 µM [5, 9]: 103%
activity at 4.48 µM [5, 10]: 100%
activity at 20.5 µM [5, 9]: 91.3%
activity at 20.5 µM [5, 10]: 91.9%
activity at 43.8 µM [5, 9]: 87.1%
activity at 43.8 µM [5, 10]: 86.4%
activity at 93.5 µM [5, 9]: 73.5%
activity at 93.5 µM [5, 10]: 73.7%
activity at 200 µM [5, 9]: 59%
activity at 200 µM [5, 10]: 55.5%
IC50 ([5]; human, human liver microsomes, pH 7.4, probe bupropion (hydroxylation), at approximately KM): > 200000 nM
logD at 1 h [6]: 1.7
fm,CYP3A ([7]; Predicted from in vitro phenotyping data): 0.76
CLint ([7]; Simcyp elimination input, Recombinant, CYP3A4, Pathway 1): 0.147 µL/min/pmol
CL renal ([7]; human): 50 mL/min
clearance ([7]; human, plasma): 417 mL/min
MBI Kapp [8]: 163.000 µM
